# Test system: GBS clinical isolates and laboratory strains
# Assay: Macrobroth penicillin tolerance assay
# Type: cell-based, Group B Streptococcus
# Settings: then 24 h drug-free; for 30xMIC, regrowth O.D.600: Penicillin G 30×MIC90 48 h; for 100xMIC, regrowth O.D.600: Penicillin G 100×MIC90 48 h; for 300xMIC, regrowth O.D.600: Penicillin G 300×MIC90 48 h; for 10xMIC, regrowth O.D.600: Penicillin G 10×MIC90 48 h
# Experimental: Using this modified penicillin tolerance assay, tolerant strains from the GBS clinical isolates can be more efficiently identified. In this macrobroth culture format, 25 ml THB broth GBS cultures (containing clinical isolates) were grown to an early exponential growth phase (˜0.2 OD600). Cell cultures (6 ml) were collected and divided into 4 culture tubes. […] Cell cultures were shaken at 150 rpm in order to maintain cells in suspension for proper growth. Subcultures (1/20 dilution) of cells were put into fresh THB containing […] Penase (i.e., 100 μl of Penase 10,000 U stock into 4 ml THB culture). Subcultures were allowed to grow for 24 hours at 37° C. Cell growth was monitored by OD (see Example 2).
# (I) Bacterial Strains and Culture Conditions. GBS strains A909 (serotype IA), 515 (serotype IA), NEM316 (serotype III), COHI (serotype III), 2603V/R (serotype V) and O90R (non-typable) were used in this study. E. coli Top10 cells were used for the recombination experiments. GBS was cultured in Todd Hewitt broth (THB) or Tryptic Soy 5% sheep blood (TS) media and E. coli in Luria-broth (LB) medium or agar. Antibiotics were used at the following concentrations: for GBS—penicillin G (MIC90 0.06 μg ml^−1), ampicillin (MIC90 0.12 μg ml^−1), vancomycin (MIC90 2 μg ml^−1), cefazolin (MIC90 1 μg ml^−1) and chloramphenicol (5 μg ml^−1); for E. coli—ampicillin (50 μg ml^−1) and chloramphenicol (5 μg ml^−1). Both GBS and E. coli cultures were grown at 37° C. (II) Tolerance Using the MBC:MIC Ratio Method. Three GBS laboratory strains (i.e., A909, NEM316, and O90R) were cultured overnight for 18 h at 37° C. in THB. Subcultures in THB were subsequently grown to exponential phase (OD600˜0.3; i.e. 5×10^5 cfu/ml) at 37° C. Cell cultures were then exposed to different concentrations of antibiotics (Penicillin G, Ampicillin, Cefozolin or Vancomycin). […] Cell cultures were dispersed every 18 h before OD600 was measured to determine the lowest concentration of antibiotic with 90% growth inhibition (MIC90). Antibiotic treated cells (8 μl) from each well were re-suspended into PBS (100 μl) and plated (54 μl) on TS agar plates and allowed to grow for an additional 24 h at 37° C. Cell count was performed to determine the lowest concentration of antibiotic with 90% killing of original inoculums (MBC90). (III) Penicillin Killing and Regrowth Tolerance Assay by Microbroth Dilution. Three GBS laboratory strains (i.e., A909, NEM316, and O90R) were cultured overnight for 18 h at 37° C. in THB. Subcultures in THB were subsequently grown to exponential phase (OD600˜0.3) at 37° C. Cell cultures were then exposed to different concentrations of Penicillin G (Sigma, St. Louis, Mo.). […] Cell cultures were dispersed. A 1:20 dilution of cells was re-plated into new wells containing fresh THB with 500 U Penase (to degrade residual penicillin). Cell cultures were allowed to re-grow for an additional 24 h at 37° C. before the OD600 was measured. (IV) Measuring Cell Viability by Determining ATP Concentration. GBS strains were cultured for 18 h at 37° C. in THB. These cells were inoculated into fresh THB and subsequently allowed to grow to exponential phase (OD600 0.25-0.3) at 37° C. One ml of each culture was centrifuged at 5,000×g for 4 min. The cell pellet was re-suspended in ATP-free water. Cellular ATP was extracted using trichloroacetic acid (TCA) (5%) for 2 min and subsequently neutralized with Tris-EDTA-0.1M NaOAc, pH 7.75 to 10×TCA volume. The initial (in.) cellular ATP concentration ([ATP]) was measured using the ENLITEN (Promega) luciferase based reaction kit. THB cultures were then treated with 100×MIC90 Penicillin G for 22 h. The experimental (exp.) cellular ATP was extracted and the concentration was measured as stated above. Based on the calculations ([ATP] exp.)/([ATP] in./O.D. in.), differences in viability were equated with the change in [ATP]. (V) Measuring Penicillin Induced Lysis. Three GBS laboratory strains (A909, NEM316, and O90R) were cultured for 18 h at 37° C. in THB. […]
smiles,measurement,setting,value
CC1(C)S[C@@H]2[C@H](NC(=O)Cc3ccccc3)C(=O)N2[C@H]1C(=O)O [Penicillin G],"30xMIC, regrowth O.D.600",GBS strain 172 (NT),−− (“−−” indicates an O.D.600 of 0.001 to 0.099)
same,"100xMIC, regrowth O.D.600",GBS strain 172 (NT),−− (“−−” indicates an O.D.600 of 0.001 to 0.099)
same,"300xMIC, regrowth O.D.600",GBS strain 172 (NT),−− (“−−” indicates an O.D.600 of 0.001 to 0.099)
same,"10xMIC, regrowth O.D.600",GBS strain 180 (V),−− (“−−” indicates an O.D.600 of 0.001 to 0.099)
same,"30xMIC, regrowth O.D.600",GBS strain 180 (V),−− (“−−” indicates an O.D.600 of 0.001 to 0.099)
same,"100xMIC, regrowth O.D.600",GBS strain 180 (V),−− (“−−” indicates an O.D.600 of 0.001 to 0.099)
same,"300xMIC, regrowth O.D.600",GBS strain 180 (V),−− (“−−” indicates an O.D.600 of 0.001 to 0.099)
same,"10xMIC, regrowth O.D.600",GBS strain 193 (III),−− (“−−” indicates an O.D.600 of 0.001 to 0.099)
same,"30xMIC, regrowth O.D.600",GBS strain 193 (III),−− (“−−” indicates an O.D.600 of 0.001 to 0.099)
same,"100xMIC, regrowth O.D.600",GBS strain 193 (III),−− (“−−” indicates an O.D.600 of 0.001 to 0.099)
same,"300xMIC, regrowth O.D.600",GBS strain 193 (III),−− (“−−” indicates an O.D.600 of 0.001 to 0.099)
same,"10xMIC, regrowth O.D.600",GBS strain 204 (V),−− (“−−” indicates an O.D.600 of 0.001 to 0.099)
same,"30xMIC, regrowth O.D.600",GBS strain 204 (V),−− (“−−” indicates an O.D.600 of 0.001 to 0.099)
same,"100xMIC, regrowth O.D.600",GBS strain 204 (V),−− (“−−” indicates an O.D.600 of 0.001 to 0.099)
same,"300xMIC, regrowth O.D.600",GBS strain 204 (V),−− (“−−” indicates an O.D.600 of 0.001 to 0.099)
same,"10xMIC, regrowth O.D.600",GBS strain 211 (Ib),−− (“−−” indicates an O.D.600 of 0.001 to 0.099)
same,"30xMIC, regrowth O.D.600",GBS strain 211 (Ib),−− (“−−” indicates an O.D.600 of 0.001 to 0.099)
same,"100xMIC, regrowth O.D.600",GBS strain 211 (Ib),−− (“−−” indicates an O.D.600 of 0.001 to 0.099)
same,"300xMIC, regrowth O.D.600",GBS strain 211 (Ib),−− (“−−” indicates an O.D.600 of 0.001 to 0.099)
same,"10xMIC, regrowth O.D.600",GBS strain 219 (Ia),+ (“+” indicates an O.D.600 of 0.100 to 0.250)
same,"30xMIC, regrowth O.D.600",GBS strain 219 (Ia),+ (“+” indicates an O.D.600 of 0.100 to 0.250)
same,"100xMIC, regrowth O.D.600",GBS strain 219 (Ia),+ (“+” indicates an O.D.600 of 0.100 to 0.250)
same,"300xMIC, regrowth O.D.600",GBS strain 219 (Ia),+ (“+” indicates an O.D.600 of 0.100 to 0.250)
same,"10xMIC, regrowth O.D.600",GBS strain 244 (Ib),−− (“−−” indicates an O.D.600 of 0.001 to 0.099)
same,"30xMIC, regrowth O.D.600",GBS strain 244 (Ib),−− (“−−” indicates an O.D.600 of 0.001 to 0.099)
same,"100xMIC, regrowth O.D.600",GBS strain 244 (Ib),−− (“−−” indicates an O.D.600 of 0.001 to 0.099)
same,"300xMIC, regrowth O.D.600",GBS strain 244 (Ib),−− (“−−” indicates an O.D.600 of 0.001 to 0.099)
same,"10xMIC, regrowth O.D.600",GBS strain 264 (V),+++ (“+++” indicates an O.D.600 of 0.751 to 1.500)
same,"30xMIC, regrowth O.D.600",GBS strain 264 (V),++ (“++” indicates an O.D.600 of 0.251 to 0.750)
same,"100xMIC, regrowth O.D.600",GBS strain 264 (V),−− (“−−” indicates an O.D.600 of 0.001 to 0.099)
same,"300xMIC, regrowth O.D.600",GBS strain 264 (V),++ (“++” indicates an O.D.600 of 0.251 to 0.750)
same,"10xMIC, regrowth O.D.600",GBS strain 268 (Ib),++ (“++” indicates an O.D.600 of 0.251 to 0.750)
same,"30xMIC, regrowth O.D.600",GBS strain 268 (Ib),−− (“−−” indicates an O.D.600 of 0.001 to 0.099)
same,"100xMIC, regrowth O.D.600",GBS strain 268 (Ib),+++ (“+++” indicates an O.D.600 of 0.751 to 1.500)
same,"300xMIC, regrowth O.D.600",GBS strain 268 (Ib),+++ (“+++” indicates an O.D.600 of 0.751 to 1.500)
same,"10xMIC, regrowth O.D.600",GBS strain 272 (V),−− (“−−” indicates an O.D.600 of 0.001 to 0.099)
same,"30xMIC, regrowth O.D.600",GBS strain 272 (V),−− (“−−” indicates an O.D.600 of 0.001 to 0.099)
same,"100xMIC, regrowth O.D.600",GBS strain 272 (V),−− (“−−” indicates an O.D.600 of 0.001 to 0.099)
same,"300xMIC, regrowth O.D.600",GBS strain 272 (V),−− (“−−” indicates an O.D.600 of 0.001 to 0.099)
same,"10xMIC, regrowth O.D.600",GBS strain 273 (V),−− (“−−” indicates an O.D.600 of 0.001 to 0.099)
same,"30xMIC, regrowth O.D.600",GBS strain 273 (V),−− (“−−” indicates an O.D.600 of 0.001 to 0.099)
same,"100xMIC, regrowth O.D.600",GBS strain 273 (V),−− (“−−” indicates an O.D.600 of 0.001 to 0.099)
same,"300xMIC, regrowth O.D.600",GBS strain 273 (V),++ (“++” indicates an O.D.600 of 0.251 to 0.750)
same,"10xMIC, regrowth O.D.600",GBS strain 279 (III),++ (“++” indicates an O.D.600 of 0.251 to 0.750)
same,"30xMIC, regrowth O.D.600",GBS strain 279 (III),+++ (“+++” indicates an O.D.600 of 0.751 to 1.500)
same,"100xMIC, regrowth O.D.600",GBS strain 279 (III),++ (“++” indicates an O.D.600 of 0.251 to 0.750)
same,"300xMIC, regrowth O.D.600",GBS strain 279 (III),++ (“++” indicates an O.D.600 of 0.251 to 0.750)
same,"10xMIC, regrowth O.D.600",GBS strain 296 (Ia),−− (“−−” indicates an O.D.600 of 0.001 to 0.099)
same,"30xMIC, regrowth O.D.600",GBS strain 296 (Ia),−− (“−−” indicates an O.D.600 of 0.001 to 0.099)
same,"100xMIC, regrowth O.D.600",GBS strain 296 (Ia),++ (“++” indicates an O.D.600 of 0.251 to 0.750)
same,"300xMIC, regrowth O.D.600",GBS strain 296 (Ia),−− (“−−” indicates an O.D.600 of 0.001 to 0.099)
same,"10xMIC, regrowth O.D.600",GBS strain 306 (II),−− (“−−” indicates an O.D.600 of 0.001 to 0.099)
same,"30xMIC, regrowth O.D.600",GBS strain 306 (II),−− (“−−” indicates an O.D.600 of 0.001 to 0.099)
same,"100xMIC, regrowth O.D.600",GBS strain 306 (II),−− (“−−” indicates an O.D.600 of 0.001 to 0.099)
same,"300xMIC, regrowth O.D.600",GBS strain 306 (II),−− (“−−” indicates an O.D.600 of 0.001 to 0.099)
same,"10xMIC, regrowth O.D.600",GBS strain 307 (II),−− (“−−” indicates an O.D.600 of 0.001 to 0.099)
same,"30xMIC, regrowth O.D.600",GBS strain 307 (II),−− (“−−” indicates an O.D.600 of 0.001 to 0.099)
same,"100xMIC, regrowth O.D.600",GBS strain 307 (II),−− (“−−” indicates an O.D.600 of 0.001 to 0.099)
same,"300xMIC, regrowth O.D.600",GBS strain 307 (II),−− (“−−” indicates an O.D.600 of 0.001 to 0.099)

# From US8247170B2, “Detection of penicillin tolerance in Group B Streptococcus: single nucleotide polymorphisms in penicillin binding protein 4” (priority 2008, dated 2012)
